Experimental data reported in article PMC3199943, “Screening the MayBridge Rule of 3 Fragment Library for Compounds That Interact with the Trypanosoma brucei myo-Inositol-3-Phosphate Synthase and/or Show Trypanocidal Activity” (Molecular Biology International, 2011).

Assays:
[1] = system: A549 cells; assay: Cytotoxicity against A549 cells, Alamar Blue; type: cell-based; settings: Supplementary Table 1, compound 0.5 mM, percentage of controls (n=1); for viability at 500 µM: Homo sapiens, A549, 65 h
Method in brief: (§1)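 HeLa and A549 cells grown in DMEM with 10% FCS and 2 mM L-Glutamine were seeded at 2 × 10^4 cells/well. They were exposed to compounds for ~65 hours, then Alamar Blue was added for a further 5 hours to measure viability.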

[2] = system: HeLa cells; assay: cells; settings: for viability at 500 µM / CC50: Homo sapiens, HeLa; for viability at 500 µM: 65 h, read-out: HeLa Cells Alamar Blue; for HeLa Cells Alamar Blue: Supplementary Table 1, compound 0.5 mM, percentage of controls, mean ± SD (n=3) or SE (n=2); for CC50: read-out: HeLa ED50
Method in brief: as §1

Structure (SMILES)	viability at 500 µM [1] [%]	viability at 500 µM [2] [%]	A549 Cells Alamar Blue [1]	HeLa Cells Alamar Blue [2]	CC50 [2] [µM]
CCN(CC)CCc1ccccn1 [compound 443, N,N‐diethyl‐N‐[2‐(2‐pyridyl)ethyl]amine]	49.2	90.9 ± 9.8			
OCc1ccccc1-c1cccs1 [compound 543, (2‐thien‐2‐ylphenyl)methanol]	56.5	73.9 ± 3.7			
NCCOc1ccccc1 [compound 122, 2‐phenoxyethylamine]	100	73.6 ± 5.4			
Nc1ccc(-c2cccnc2)cc1 [compound 347, 4‐pyridin‐3‐ylaniline]	113	79.3 ± 2.8			
CC(=O)Nc1ccc2c(c1)CCCC2=O [compound 644, N1‐(5‐oxo‐5,6,7,8‐tetrahydronaphthalen‐2‐yl)acetamide]			93.5 percentage of controls	99.2 ± 7.5 percentage of controls	
O=C1CCC(C(F)(F)F)CC1 [compound 317, 4‐(trifluoromethyl)cyclohexan‐1‐one]	90.5	111 ± 7.2			
N#Cc1cccc(-c2ccco2)c1 [compound 338, 3‐(2‐furyl)benzonitrile]	57.8	18.5 ± 15.2			
COC(=O)c1ccc2ncccc2c1 [compound 515, methyl quinoline‐6‐carboxylate]	67.8	69.9 ± 8.1			
Cc1cc(N)on1 [compound 10, 3‐methylisoxazol‐5‐amine]	87.2	66 ± 4.6			
Cc1ccc(C(=O)O)cc1Cl [compound 351, 3‐chloro‐4‐methylbenzoic acid]	112	88.2 ± 17.9			
Nc1ccc(Cn2ccnc2)cc1 [compound 375, 4‐(1H‐imidazol‐1‐ylmethyl)aniline]	90.7	88 ± 18.8			
Cc1nc(CC(=O)O)cs1 [compound 243, 2‐(2‐methyl‐1,3‐thiazol‐4‐yl)acetic acid]	113	99.5 ± 1.1			
N#CC(c1ccccc1)N1CCOCC1 (centres unmarked) [compound 638, 2‐morpholino‐2‐phenylacetonitrile]	89.8	80.5 ± 8.2			
Cc1nc2ccccn2c1CO [compound 287, (2‐methylimidazo[1,2‐a]pyridin‐3‐yl)methanol]			79.7 percentage of controls	76.2 ± 14 percentage of controls	
NCc1cccc(-n2cccc2)c1 [compound 364, 3‐(1H‐pyrrol‐1‐yl)benzylamine]	56.9	29.5 ± 12.9			40.4 ± 1.8
NCc1ccccc1-n1cccc1 [compound 363, [2‐(1H‐pyrrol‐1‐yl)phenyl]methylamine]	45.6	42.6 ± 11.7			
NCC1COc2ccccc2O1 (centres unmarked) [compound 309, 2,3‐dihydro‐1,4‐benzodioxin‐2‐ylmethylamine]			68.9 percentage of controls	12.3 ± 8.8 percentage of controls	
c1ccc(Cn2cccc2)nc1 [compound 249, 2‐(1H‐pyrrol‐1‐ylmethyl)pyridine]	83.6	93.1 ± 19.9			
O=C(C1CCCNC1)N1CCCC1 (centres unmarked) [compound 468, 3‐piperidinyl(1‐pyrrolidinyl)methanone]	80.7	110 ± 13.3			
COC(=O)c1ccccc1Cl [compound 352, methyl 2‐chlorobenzoate]	76.4	95.8 ± 19			
FC(F)(F)C1=NCCNC=C1 [compound 295, 5‐(trifluoromethyl)‐2,3‐dihydro‐1H‐1,4‐diazepine]			72.1 percentage of controls	75.2 ± 18.7 percentage of controls	

Structure (SMILES)	viability at 500 µM [1] [%]	viability at 500 µM [2] [%]	A549 Cells Alamar Blue [1]	HeLa Cells Alamar Blue [2]	CC50 [2] [µM]
Cc1ccc2sc(CO)cc2c1 [compound 442, 5‐Methylbenzo[b]thiophene‐2‐methanol]	53.7	71.3 ± 3.5			
Nc1ccc(N2CCOCC2)cc1 [compound 435, 4‐morpholinoaniline]	33.5	10.2 ± 6.9			
Cc1cc(CN)n(C)n1 [compound 73, (1,3‐dimethyl‐1H‐pyrazol‐5‐yl)methylamine]			107.6 percentage of controls	91.3 ± 0.6 percentage of controls	
CC(C)(C)c1ccc(N)cc1 [compound 178, 4‐(tert‐butyl)aniline]	87.6	109 ± 18.8			
OCc1ccccc1Oc1ccccc1 [compound 621, (2‐phenoxyphenyl)methanol]	73.7	74.9 ± 14.8			
CN1CCN(C)C(CO)C1 (centres unmarked) [compound 154, (1,4‐dimethyl‐2‐piperazinyl)methanol]	117	96.9 ± 6.4			
CC1(C)Cc2cccc(CO)c2O1 [compound 434, (2,2‐dimethyl‐2,3‐dihydro‐1‐benzofuran‐7‐yl)methanol]			51.1 percentage of controls	80.2 ± 12 percentage of controls	
CNCc1ccc(Cl)cc1 [compound 231, N‐(4‐chlorobenzyl)‐N‐methylamine]	107	113 ± 3.7			
COc1cc2c(cc1OC)C(C)=NCC2 [compound 664, 6,7‐dimethoxy‐1‐methyl‐3,4‐dihydroisoquinoline]			77.7 percentage of controls	75.4 ± 2.2 percentage of controls	
Nc1cc(Cl)cc(Cl)c1 [compound 282, 3,5‐dichloroaniline]	66.5	86.4 ± 8.5			
Cc1onc(-c2ccccc2)c1N [compound 384, 5‐methyl‐3‐phenyl‐4‐isoxazolamine]	75.5	80.8 ± 13.4			
OCc1ccc(Oc2ccccn2)cc1 [compound 629, [4‐(pyrid‐2‐yloxy)phenyl]methanol]	96.1	84.1 ± 9.9			
Nc1ccc(-n2cccc2)cc1 [compound 250, 4‐(1H‐pyrrol‐1‐yl)aniline]	89.1	107 ± 16.6			1400 ± 100
NCc1ccc2sccc2c1 [compound 294, 1‐benzothiophen‐5‐ylmethylamine]	70.6	98.5 ± 13.1			
NC(=O)c1ccccc1Cl [compound 230, 2‐chlorobenzamide]	92.9	104 ± 8.8			
NCc1cccc(F)c1 [compound 70, 3‐fluorobenzylamine]	104	104 ± 17.4			
OCC1CCc2ccccc2O1 (centres unmarked) [compound 299, 3,4‐dihydro‐2H‐chromen‐2‐ylmethanol]	80.3	85.1 ± 14.7			
OCc1ccc(N2CCCC2)nc1 [compound 437, [6‐(1‐pyrrolidinyl)‐3‐pyridinyl]methanol]	44.3	9.3 ± 4.8			
OCc1cccc2c1OCCO2 [compound 322, 2,3‐dihydro‐1,4‐benzodioxin‐5‐ylmethanol]			96.4 percentage of controls	100.4 ± 14.9 percentage of controls	
OCc1ccc(CN2CCCCC2)cc1 [compound 669, [4‐(piperidin‐1‐ylmethyl)phenyl]methanol]	121	93.2 ± 12.6			
O=C(O)CC12CC3CC(CC(C3)C1)C2 [compound 588, 2‐(1‐adamantyl)acetic acid]	85.4	95.4 ± 14.1			
